Data as given in PMC8362126, “Proteolysis Targeting Chimera (PROTAC) for Macrophage Migration Inhibitory Factor (MIF) Has Anti‐Proliferative Activity in Lung Cancer Cells” (Angewandte Chemie (International Ed. in English), 2021).
Where “and” joins values, the source holds several entries; their conditions need not be identical. Equal values may be shown once. Entries after “also recorded” stand apart in the source; their conditions may differ. Values belong to the compound of their own block, whether it stands above or below them.

Tests used:
MIF [1] = target: T1, MIF (Homo sapiens, UniProt P14174); experiment: MIF degradation in A549 cells, western-blot; type: cell-based; parameters: endogenous in cells; host or cells: A549 (ATCC CCL-185)
T1 sequence (P14174 2-115 limits assumed): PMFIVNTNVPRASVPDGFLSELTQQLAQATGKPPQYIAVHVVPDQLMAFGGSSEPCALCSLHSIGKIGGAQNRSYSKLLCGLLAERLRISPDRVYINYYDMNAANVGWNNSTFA
Procedure: The concentration dependence of PROTAC MD13‐mediated induction of MIF degradation in A549 cells was investigated using western‐blot. […] The MIF levels were normalized to the vehicle treated control and plotted to the respective MD13 concentrations. This provided a DC50 of around 100 nM and a maximal degradation of around 90–95 % at concentrations higher than 1 μM (Figure 3 B). The DC50 of MD13 measured by ELISA assay was about 200 nM (Figure 3 C), which is in line with the result from western‐blot. […]
Cell lysates were prepared using the protocol described above. About 10−40 μg of total protein was mixed with the 4× Laemmli Loading Dye (250 mM Tris, pH 6.8, 40% glycerol, 5% SDS, 0.005% bromophenol blue, 4% β-mercaptoethanol) and heated at 95−100 °C for 5 min and loaded onto a 12% Bis-Tris gel (Bio-Rad Laboratories, #4561084) and proteins were separated at 120V. Afterwards, proteins were transferred to polyvinylidene fluoride (PVDF) membranes, subsequently non-specific antibody binding was blocked with 5% nonfat dry milk (BIO-RAD, #1706404) in TBST buffer and incubated overnight at 4 °C with one of the following primary antibodies: anti-MIF (1:1000, ThermoFisher, #PA5-27343 ) or anti-β-actin (1:10000 Cell Signalling, #8457). The membranes were further incubated with a goat anti-rabbit HRP-conjugated secondary antibody (1:2000, DAKO, p0448) for 2 h at room temperature. Proteins were visualized with an ECLTM Prime Western Blotting System (GE Healthcare #RPN2232). The immunoblot was generated by ChemiDoc MP Imaging Systems (Bio-Rad) and analyzed by the ImageJ software. […]
As a control, the same experiment was repeated and analyzed by a western-blot assay (Figure 3B). The potency estimated from the Western blot assay was 1 µM (Figure 3C), which is consistent with the result from the ELISA assay. The “Hook effect” […]

MIF [2] = target: T1, MIF; experiment: MIF catalyzed 4-HPP tautomerization assay; type: biochemical; settings: for IC50: 4-HPP conversion assay; for Ki: MIF catalyzed 4-HPP tautomerization, n=3
Procedure: S2. MIF Tautomerase activity IC50 study
The protocol for measuring inhibition of MIF tautomerase enzyme activity and enzyme kinetics was described previously.[8] Briefly, 180 µL of a 500 nM MIF solution in boric acid buffer (435 mM, pH 6.2) was mixed with 10 µL of a 20 mM EDTA solution in demiwater and 10 µL of a solution of the desired compound dissolved in DMSO or blanc DMSO. This mixture was pre-incubated at room temperature for 10 min. Next, 50 µL of this mixture was mixed with 50 µL of a 1 mM 4-HPP solution in ammonium acetate buffer (50 mM, pH 6.0). Subsequently, MIF tautomerase activity was monitored by measuring the increase of UV absorbance at 306 nm over time. MIF tautomerase activity in the presence a blank DMSO dilution was set to 100% enzyme activity. Non-catalyzed conversion of the substrate in absence of MIF was set to 0%.
Data from the first three minutes were used to calculate the initial velocities. All experiments were repeated three times and calculations were performed with the program GraphPad Prism.
Table S1. 4-HPP conversion assay results of MIF PROTACs
(also on this page, place not known: p rotocol previously. subs trate log [MD-1] (10^-6 M) Activity of MIF tautomerase(%) -2 -1 0 1 2 0 50 100 log [MD-2] (10^-6 M) Activity of MIF tautomerase(%) -2 -1 0 1 2 0 50 100)

A549 cells = experiment: CyQUANT cell proliferation assay; type: cell-based, human; settings: 72 hours; for effect on cell proliferation: concentrations up to 20 μM
Procedure: S8. Cell growth, cell cycle and pERK signaling study
Cell proliferation was measured with the CyQUANT® Direct Cell Proliferation Assay Kit (Thermo Fisher, #C35011). A549 cells were cultured in 96-well plates at a density of 1,000 cells/well and treated with different concentrations of MIF PROTAC (0.02-20 μM) for 72 h.
Cells were incubated with detection reagent (100 μL) for 60 min at 37 °C with 5% CO2. The fluorescence of each well was read at 485/535nm by plate reader (BioTek).
Figure S8. Cells were seeded with a density of 1000 cells per well in a 96-well plate. After overnight incubation, the cells were treated with various concentration of MD13 for 72 hours.
The resulting cells were quantified by CyQUANT® cell proliferation assays and compared with the vehicle (DMSO) control (n=3). […]
(also on this page, place not known: (0.02 -20 CO 2. (20 µM) 4 (20 µM) µM 20 µM 0.01 µM 0.08 µM 0.74 µM 6.7 µM 20 µM 0 50 100 Cell (%) H441 n.s. * * ** *** * n.s. MD15 96 -well MD13 proliferation control 96 -well round - 2 3) […]
(1 picture or pasted object on this page, not shown here)

Structure (SMILES): O=C1CCC(N2C(=O)c3cccc(NCCCCCCCC(=O)Nc4ccc(N5Cc6ccc(O)cc6OC5=O)cc4)c3C2=O)C(=O)N1 (stereo not drawn) [MD13]
- Dmax (MIF [1]; A549, A549 cells, 12 h, western-blot, concentrations higher than 1 μM, read-out: maximal degradation (Dmax)): 90 to 95%
- reduction of MIF protein levels within 3 hours (MIF [1]; A549 cells, 3 hours): about 80%
- maximal degradation (Dmax) (MIF [1]; A549 cells, 12 h, western-blot, concentrations higher than 1 μM): > 90%
- DC50 (MIF [1]; A549 cells, 12 h, western-blot, read-out: DC50): ~100 nM and < 100 nM
- recovery of the MIF levels after 48 h (MIF [1]; A549 cells, 48 h): slight recovery
- MIF degradation after 6 h (MIF [1]; A549 cells, time course, 6 h): > 92%
- time of treatment after which MIF degradation becomes visible (MIF [1]; A549 cells, MD9 at 10 μM): 3 h
- IC50 (MIF [2]): 106 ± 7 nM
- Ki (MIF [2]): 71 ± 5 nM
- inhibition at 20 µM (A549 cells; Homo sapiens, 20 μM, 2D culture): ~50%

- IC50 (MIF [2]): 83 ± 18 nM
- Ki (MIF [2]): 55 ± 12 nM
Structure (SMILES): CN1C(=O)CCC(N2C(=O)c3cccc(NCCCCCCCC(=O)Nc4ccc(N5Cc6ccc(O)cc6OC5=O)cc4)c3C2=O)C1=O (stereo not drawn) [MD15]
- effect on MIF level relative to control (MIF [1]; A549 cells, 12 hours, inactive control experiment): not able to reduce the MIF levels; also recorded: no effect on MIF protein level
- effect on cell proliferation (A549 cells): almost no inhibition; also recorded: no or little effect

- Ki (MIF [2]): 103 ± 10 nM
Structure (SMILES): COc1ccc(N2Cc3ccc(O)cc3OC2=O)cc1OC [compound 3]
- rescue of MD9 mediated MIF degradation (MIF [1]; A549 cells, 2 hours pretreatment (1 100 µM, 3 50 µM, 4 50 µM, Bortezomib), then 10 µM MD9 12 h): partial to complete rescue; also recorded: rescued
- rescue of MD13 mediated MIF degradation (MIF [1]; A549 cells, co-treatment (Bortezomib) or 1 hour pretreatment (3, 4) with MD13): rescued MIF from degradation; also recorded: able to abolish the MD13 triggered degradation
- effect on cell proliferation (A549 cells): no effect; also recorded: no or little effect
